Source: PubChem BioAssay AID1996
Values after ≈ are worked out from the molar mass of the structure shown.

conditions: buffer; pH 7.4; 200.0 µM

Compound | solubility kinetic
O=C1c2ccccc2NC(c2ccccc2O)N1c1ccc(F)cc1 (centres undefined) | 5.5 µg/mL (≈ 16.4 µM)
CCN(CC)CCOC(=O)/C=C/c1ccccc1.Cl | 38.5 µg/mL
CN1CCCN(C(=O)c2c(F)cccc2Cl)CC1 | > 40.6 µg/mL
Cc1cccnc1Nc1nc(-c2ccc(F)cc2)cs1 | 0.3 µg/mL (≈ 1.05 µM)
C=CCC(C=C)[N+]1(CC(=O)OC)CCCCC1.[Br-] (centres undefined) | > 47.7 µg/mL
Nc1cc(-c2ccncc2)c[nH]c1=O | > 28.1 µg/mL
Nc1ccc(-c2nc3ncccc3o2)c(O)c1 | 3.1 µg/mL (≈ 13.6 µM)
O=C(CCNS(=O)(=O)c1ccccc1)Nc1ccccc1 | > 45.7 µg/mL
Cc1ccc(NC(=O)CSc2ncccn2)cc1F | > 41.6 µg/mL
NC(=O)c1cc[n+](Cc2ccc([N+](=O)[O-])cc2)cc1.[Br-] | > 50.7 µg/mL
Cl.Nc1cc(Cl)ccc1N1CCCCCC1 | 12.4 µg/mL
O=[N+]([O-])c1ccc2c(c1)nc1n2CCN(c2ccccc2)C1 | 6.8 µg/mL (≈ 23.1 µM)
Cc1cccc(OCC(=O)NCc2ccc(F)cc2)c1 | 23.4 µg/mL (≈ 85.6 µM)
CC(C)N1CCN(Cc2cccc3nonc23)CC1CCO (centres undefined) | 42.2 µg/mL (≈ 139 µM)
Cc1cccc(OCC(=O)NCC(=O)N/N=C/c2cccnc2)c1 | > 49 µg/mL
O=C1CCCN1CCCNS(=O)(=O)c1cccc(F)c1 | > 45.1 µg/mL
N#Cc1cnc(Sc2ccccc2)nc1 | 26 µg/mL (≈ 122 µM)
COc1cc(/C=C(\C#N)C(=O)Nc2ccccn2)ccc1O | 5.9 µg/mL (≈ 20 µM)
CCOc1ccccc1NC(=O)/C(C#N)=C/c1cccnc1 | 18.8 µg/mL (≈ 64.1 µM)
CCC(COC(C)=O)Nc1nc2c([nH]1)c(=O)n(C)c(=O)n2C (centres undefined) | > 46.4 µg/mL

Compound | solubility kinetic
COC(c1ccccc1)(c1ccccc1)C(Oc1nccc(C)n1)C(=O)O (centres undefined) | 51 µg/mL (≈ 140 µM)
CCOC(=O)/C(=C/Nc1ccc(F)cc1)[N+](=O)[O-] | 33.9 µg/mL (≈ 133 µM)
Nc1nc(NCC(=O)O)nc(N2CCCCCC2)c1[N+](=O)[O-] | 44.1 µg/mL (≈ 142 µM)
CCCCOc1ccc(C(=O)CCN2CCCCC2)cc1.Cl | > 48.9 µg/mL
O=C1N(c2ccccc2)CCN1c1ccccc1 | < 0.3 µg/mL
O=c1[nH]cc(N2CCCCCC2)c(=O)[nH]1 | > 31.4 µg/mL
Fc1ccccc1CNc1nc(-c2cccnc2)nc2ccccc12 | 9 µg/mL (≈ 27.2 µM)
O=c1c2ccccc2n(CC(O)CN2CCCCC2)c2ccccc12 (centres undefined) | > 50.5 µg/mL
CCOc1ccc(Br)cc1S(=O)(=O)Nc1ccc(S(=O)(=O)Nc2cc(C)on2)cc1 | 9.3 µg/mL (≈ 18 µM)
C=CCn1c(C(C)C)nc2ccccc21.Cl | > 35.5 µg/mL
O=C1c2ccccc2S(=O)(=O)N1Cc1ccccc1[N+](=O)[O-] | 0.7 µg/mL (≈ 2.2 µM)
CCOc1ccc(OCCC(=O)OCC(=O)NCc2ccccc2)cc1 | 46.3 µg/mL (≈ 130 µM)
COc1ccccc1OCc1nc2ccccc2n1C | 37.5 µg/mL (≈ 140 µM)
COc1ccccc1NC(=O)c1ccc(-n2ccnc2)c([N+](=O)[O-])c1 | > 50.7 µg/mL
O=[N+]([O-])c1ccccc1S(=O)(=O)c1ccccc1 | > 39.5 µg/mL
Cn1c(SCc2ccccc2C#N)nc2ccccc2c1=O | 1 µg/mL (≈ 3.25 µM)
CSc1ccc(CNC(C)(C)CO)cc1.Cl | > 39.3 µg/mL
COc1ccc(NC(=O)NCc2ccccc2F)cc1OC | 10.9 µg/mL (≈ 35.8 µM)
N#CC1(NC(=O)COC(=O)CN2C(=O)c3ccccc3C2=O)CCCCC1 | > 55.4 µg/mL
CSc1cccc(N=C2C(=O)Nc3ccccc32)c1 | 33 µg/mL (≈ 123 µM)

Compound | solubility kinetic
O=c1c2ccccc2cnn1Cc1n[nH]c(=S)n1-c1ccccc1F | > 53 µg/mL
c1ccc2c(c1)CC1(CCCC1)N=C2N1CCOCC1 | 35.5 µg/mL (≈ 131 µM)
N#CCc1nc2ccccc2c(=O)[nH]1 | > 27.8 µg/mL
Cc1ccc(S(=O)(=O)N2CCCN(C)CC2)cc1.Cl | > 45.7 µg/mL
O=[N+]([O-])c1ccccc1OCCN1CCOCC1 | > 37.8 µg/mL
Cc1ccc(CNC(=O)CN(C)S(=O)(=O)c2ccc(F)cc2)cc1 | 1.8 µg/mL (≈ 5.14 µM)
CCN(CC)C(=O)COc1c(-c2ccco2)oc2ccccc2c1=O | > 51.2 µg/mL
CCN(Cc1ccncc1)C(=O)CCc1ccccc1 | 33.4 µg/mL (≈ 124 µM)
COc1ccc(-c2ncnc(C(F)(F)F)c2-c2csc(C)n2)c(O)c1 | 53.1 µg/mL (≈ 145 µM)
COCCN(CCOc1cc(C)cc(C)c1)Cc1ccc(Cl)cc1 | 5.6 µg/mL (≈ 16.1 µM)
COc1ccccc1/C=C/CN1CCCCC1 | 25.8 µg/mL (≈ 112 µM)
CC(C)(C#CC(O)(c1ccccc1)c1ccccc1)N1CCCC1.Cl | > 53.4 µg/mL
CC(C)(C)NC(=O)CN1C(=O)/C(=C/c2ccccc2)SC1=S | 1.1 µg/mL (≈ 3.29 µM)
CCS(=O)(=O)c1ccc(O)c(NC(=O)/C=C/c2ccc(Cl)cc2)c1 | 3.9 µg/mL (≈ 10.7 µM)
O=C(NCCCn1ccnc1)C(=O)NC1CCCCC1 | > 41.8 µg/mL
CCOC(=O)c1c(-c2cccs2)csc1N | 26.8 µg/mL (≈ 106 µM)
CC1(/[N+]([O-])=C/c2ccc(F)cc2)CCCCC1=O (centres undefined) | 28.3 µg/mL (≈ 114 µM)
NC(=O)c1ccccc1OCC(=O)Nc1cccnc1Cl | > 45.9 µg/mL
CN(C)c1nc(=S)nc(NCc2ccccc2)[nH]1 | > 39.2 µg/mL
Cc1cc(NS(=O)(=O)c2ccc(NC(=O)Cc3ccc([N+](=O)[O-])cc3)cc2)nc(C)n1 | > 66.2 µg/mL

Now from value to compound:

solubility kinetic | Compound
48.7 µg/mL (≈ 135 µM) | COC(=O)c1c(NC(=O)CCC(=O)O)sc(Cc2ccccc2)c1C
38 µg/mL (≈ 127 µM) | CCOC(=O)N1CCN(S(=O)(=O)c2ccc(C)cc2)C1
> 41.3 µg/mL | O=C(N[C@@H](Cc1ccccc1)C(=O)O)c1cccs1
15.6 µg/mL (≈ 50.9 µM) | COc1ccc(CCNC(=O)Nc2cccs2)c(OC)c1
46.3 µg/mL (≈ 143 µM) | CCCC(=O)N1CCN(c2nc3ccc(Cl)cc3s2)CC1
0.7 µg/mL (≈ 2.35 µM) | Cc1ccc(-c2csc(NC(=O)c3ccco3)n2)cc1C
16.2 µg/mL (≈ 49.5 µM) | Cc1ccc(N2CC(O)Cn3c2nc2c3c(=O)[nH]c(=O)n2C)cc1 (centres undefined)
> 47.9 µg/mL | O=C(CCC(=O)c1ccccc1)Nc1ccccc1OC(F)F
> 67.2 µg/mL | COc1ccc(CCNC(=O)COC(=O)c2ncc(Cl)c(Cl)c2Cl)cc1OC
4.7 µg/mL (≈ 16.4 µM) | CCC(C)NC(=O)COC(=O)c1ccc(Cl)cc1O (centres undefined)
> 44.8 µg/mL | COc1ccc(Cl)cc1NC(=O)NN1CCN(C)CC1
1.8 µg/mL (≈ 5.65 µM) | COC(=O)c1c(NC(=O)c2ccccc2)sc(C(N)=O)c1C
30.9 µg/mL (≈ 140 µM) | CCc1ccc(OCC(=O)NC(C)C)cc1
> 30.8 µg/mL | CC(=O)NC(Cc1ccccc1)C(C)=O (centres undefined)
68.1 µg/mL (≈ 145 µM) | COc1ccc(NS(=O)(=O)c2cccc(C(=O)N3CCN(C(=O)c4ccco4)CC3)c2)cc1
> 50.6 µg/mL | COCCCNC(=O)C(CC(N)=O)NC(=O)OCc1ccccc1 (centres undefined)
24.8 µg/mL (≈ 86.9 µM) | COc1cccc(C(=O)NC23CC4CC(CC(C4)C2)C3)c1
1.2 µg/mL (≈ 3.65 µM) | Cc1cc(C)nc(N2CCCC(C(=O)Nc3ccc(F)cc3)C2)n1 (centres undefined)
46.1 µg/mL (≈ 147 µM) | CC(=O)N(C(C)=O)c1c(N2CCCC2)c2ccccc2oc1=O
> 54.5 µg/mL | CCOC(=O)N1CCN(C(=O)COC(=O)c2ccc(N(C)C)cc2)CC1

solubility kinetic | Compound
> 45.8 µg/mL | O=C(NC(=S)NNC(=O)c1cccs1)c1ccccc1
2.5 µg/mL (≈ 9.28 µM) | O=C(Nc1cccc2c1CCCC2)c1ccccc1F
> 55.4 µg/mL | CC1(C2CC2)NC(=O)N(CC(=O)Nc2ccc(SC(F)F)cc2)C1=O (centres undefined)
> 41.9 µg/mL | C/C=C/C(=O)OCC(=O)Nc1ccc(OC)c(OC)c1
18.8 µg/mL (≈ 39.5 µM) | CCOc1ccc(NC(=O)CNc2cccc(S(=O)(=O)N3CCCCCC3)c2)cc1OCC
2.7 µg/mL (≈ 8.22 µM) | CCOC(=O)c1cc(C(=O)NC(C)c2ccccc2)c(C)[nH]c1=O (centres undefined)
13.7 µg/mL (≈ 31.9 µM) | CN(C)S(=O)(=O)c1cc(NC(=O)COC(=O)CC2CC3CCC2C3)ccc1Cl (centres undefined)
39 µg/mL (≈ 128 µM) | Cc1ccc2nc(SCC(=O)Nc3nonc3N)[nH]c2c1
1.2 µg/mL (≈ 4 µM) | COc1ccc(NC(=O)Nc2ccc3c(c2)OCO3)c(C)c1
> 43 µg/mL | Cc1ccc(NC(=O)N2CCCC2c2cccs2)cc1 (centres undefined)
> 59 µg/mL | CSc1ncccc1C(=O)Nc1cccc(S(=O)(=O)N2CCOCC2)c1
< 0.2 µg/mL | Cc1cccc(NC(=O)c2cc3cc([N+](=O)[O-])ccc3s2)n1
41.4 µg/mL (≈ 143 µM) | Cc1ccccc1C(=O)NC(=S)N(C)C1CCCCC1
2 µg/mL (≈ 6.26 µM) | CCOC(=O)c1c(C)[nH]c(C(=O)OCc2ccc(F)cc2)c1C
56.8 µg/mL (≈ 135 µM) | Cn1c(N)c(C(=O)COC(=O)C2CCCN2C(=O)c2cccs2)c(=O)n(C)c1=O (centres undefined)
< 0.3 µg/mL | Cc1ccc(NC(=O)Nc2ccc3c(c2)CCC3)c(C)c1
0.6 µg/mL (≈ 1.72 µM) | COc1ccc2c(c1)CCC(C)N2C(=O)C(=O)c1c[nH]c2ccccc12 (centres undefined)
8.2 µg/mL (≈ 25 µM) | CCOc1ccccc1NC(=O)CCCc1ccc(OC)c(C)c1
> 52.3 µg/mL | Cc1ccccc1C(=O)N1CCC(C(=O)Oc2ccc(C#N)cc2)CC1
49.4 µg/mL (≈ 136 µM) | CCNC(=O)NC(=O)C(C)OC(=O)CCCc1nc2ccccc2s1 (centres undefined)

solubility kinetic | Compound
4.7 µg/mL (≈ 15.6 µM) | Cc1csc(NC(=O)c2ccc(N3CCCC3=O)cc2)n1
44.2 µg/mL (≈ 138 µM) | Cc1csc(NC(=O)[C@@H]2CCCN2C(=O)c2cccs2)n1
> 46.1 µg/mL | COc1ccc(CNC(=O)COC(=O)C2CC2C)cc1OC (centres undefined)
1.9 µg/mL (≈ 6.1 µM) | CCOC(=O)CNC(=O)C1c2ccccc2Oc2ccccc21
2.9 µg/mL (≈ 9.89 µM) | Cc1ccc(NC(=O)NCc2ccc3[nH]c(C)cc3c2)cc1
5.1 µg/mL (≈ 13.8 µM) | CCn1cc(C(=O)NCCc2ccc(Cl)cc2)c(=O)c2ccc(C)nc21
> 47.9 µg/mL | Cc1ccc(C(=O)Nc2sc3c(c2C(=O)O)CCC(C)C3)o1 (centres undefined)
5.9 µg/mL (≈ 15.4 µM) | CCOC(=O)Cc1csc(NC(=O)Cc2ccc(Br)cc2)n1
> 47.2 µg/mL | CC(C)(C)NC(=O)COC(=O)c1cc(Cl)ccc1[N+](=O)[O-]
18.3 µg/mL (≈ 52.5 µM) | O=C(CNC(=O)C1COc2ccccc2O1)Nc1ccc(F)c(F)c1 (centres undefined)
10.1 µg/mL (≈ 37.5 µM) | CC(C)c1ccc(NC(=O)COc2ccccc2)cc1
> 57.1 µg/mL | COc1ccc(OC)c(S(=O)(=O)NCCCN2CCOCC2)c1.Cl
> 47.9 µg/mL | O=C(CN1CCC(NC(=O)C2CC2)CC1)Nc1cccc(F)c1
> 49.6 µg/mL | COc1ccccc1N1CC(C(=O)NC2CCCCCC2)CC1=O (centres undefined)
> 42.3 µg/mL | COc1ccc(N=C2NC(=O)C(CO)(CO)S2)cc1
35.8 µg/mL (≈ 140 µM) | CC1(C)CC(=O)C=C(Nc2ccc3c(c2)CCC3)C1
> 52.7 µg/mL | COC(=O)c1ccc(C(=O)OC)c(NC(=S)N2CCN(C)CC2)c1
> 35.1 µg/mL | CC(C)(C)c1cc(NC(=O)c2ccco2)no1
34.8 µg/mL (≈ 93.2 µM) | COc1ccc(-n2c(SC)nc3sc4c(c3c2=O)CCN(C)C4)cc1
